Measured values reported in US12383626B2, “Polyoxazoline-drug conjugates with novel pharmacokinetic properties” (priority 2019, dated 2025).
“And” between values parts separate entries of the source, which are not always exact repeats. Identical values can stand only once.

How the values were obtained:
[1] = Log P (n-octanol/water partitioning)
[2] = male, Sprague Dawley, rat, in vivo, sc, 0.5 mg/kg
Experimental: The plasma levels of drugs released into the blood stream were measured in rodent (Sprague Dawley rats) and non-human primates (Macaca fascicularis, cynomolgus monkeys) following single subcutaneous injections of their respective POZ conjugates with different linkers and drug loading wt %.
Male Sprague Dawley naive rats (age 8-9 weeks, weight 200-250 g) were acquired and placed in rat cages and allowed at least 3 days of acclimatization before the start of the dosing. Each test group contained 3 rats. The POZ conjugates were dissolved 5% dextrose injection and the pH of the solution was adjusted to about 4.0 with 0.1 N hydrochloric acid. Each animal received a single subcutaneous (SC) injection of test article solution equivalent to a dose of 1.5-1.6 mg/kg (based in drug equivalents) and at a volume of 1 mL/kg, and into the left flank using a 23 G BD precision glide needle. […] All blood samples were collected in pre-labeled BD Microtainer tubes containing NaF/disodium EDTA, gently mixed and placed in an ice batch. Plasma was harvested by centrifugation at 3000 rpm for 15 minutes at 4° C. Plasma aliquots of 100 μL were collected in separate tubes containing 10 μL of a solution of 3N HCl acid, gently mixed and immediately frozen and stored at −70° C.
The plasma samples were processed by the ‘protein crash’ method using cold acetonitrile.

[3] = physchem

C=C(C)[C@@H]1CCC(C)=C[C@H]1c1c(O)cc(CCCCC)cc1O [Cannabidiol, cannabidiol]
Log Poct/wat ([1]; at 25° C., free drug): 6.1

CCCCCCC(C)(C)c1cc(O)c2c(c1)OC(C)(C)[C@H]1CC=C(CO)C[C@H]21 [Dexanabinol, dexanabinol]
logP [1]: 7.6

CCCCCc1cc(O)c2c(c1)OC(C)(C)[C@@H]1CCC(C)=C[C@@H]21 [Δ^9-THC, d9-tetrahydrocannabinol]
Log P ([1]; free drug, listed as THC): 7.2 and 7.0

CCCN(CCc1cccs1)[C@H]1CCc2c(O)cccc2C1 [Rotigotine, rotigotine]
time to clear the body [2]: less than 24 hours
logP [3]: 4.9
